Test results: patent publication US20030228357A1, “Dry granulated formulations of azithromycin” (Pfizer Inc., priority 2002, published 2003)
“Also recorded” adds a separate entry of the source.

Assay: Tablet friability, Vanderkamp Friabulator (100 rotations/4 minutes)
Assay type: physicochemical
Protocol: Friability is a standard test known to one skilled in the art. Friability is measured under standardized conditions by weighing out a certain number of tablets (generally 20 tablets or less), placing them in a rotating Plexiglas drum in which they are lifted during replicate revolutions by a radial lever, and then dropped approximately 8 inches. After replicate revolutions (typically 100 revolutions at 25 rpm), the tablets are reweighed and the percentage of formulation abraded or chipped is calculated. The friability of the tablets, of the present invention, is preferably in the range of about 0% to 3%, and values about 1%, or less, are considered acceptable for most drug and food tablet contexts. Friability which approaches 0% is particularly preferred.
All four formulations were compressed on the compaction simulator using either 0.344″×0.688″ oval tooling, or ½″ standard round concave (SRC) tooling. The tablets were tested for hardness (kP scale), using a Schleuniger hardness tablet tester (Dr. Schleuniger Pharmatron AG, Solothurn, Switzerland), and for friability (100 rotations/4 minutes) using a Vanderkamp Friabulator Tablet Tester (Vankel, Cary, N.C., US).

With `CC[C@H]1OC(=O)[C@H](C)[C@@H](O[C@H]2C[C@@](C)(OC)[C@@H](O)[C@H](C)O2)[C@H](C)[C@@H](O[C@@H]2O[C@H](C)C[C@H](N(C)C)[C@H]2O)[C@](C)(O)C[C@@H](C)CN(C)[C@H](C)[C@@H](O)[C@]1(C)O` [Form A, azithromycin dihydrate, reference compound] as the compound, how does the Friability (Table 2A, 35.2 wt % azithromycin, DCP anhydrous, Long blend, Oval tooling) read?
Its Friability is 2 of 5.

What about the Friability (Table 2A, 35.2 wt % azithromycin, DCP anhydrous, Long blend, ½″ SRC tooling) of the same compound?
The Friability was 1.30%.

What about the Friability (Table 2B Run 4, Short blend, Oval tooling, compression force 12 kN) of the same compound?
The Friability was “capped”.

What about the Friability (Table 2B Run 5, Short blend, Oval tooling, compression force 18.7 kN) of the same compound?
Its Friability is “capped”.

And the Friability (Table 3C, low drug loading (35.2 wt % azithromycin), DCP anhydrous, oval tablets, target weight 750 mg, dihydrate)?
The Friability was “broke during friability testing; also recorded: Broken”.

What about the Friability (Table 3D, high drug loading (58.2 wt % azithromycin), DCP anhydrous, modified capsule shape tablets, target weight 450 mg) of the same compound?
Its Friability is 0.50%.

And the Friability (Table 4C, low drug loading, diluent DCP, anhyd., Oval tooling)?
The Friability was “Broken”.

What about the Friability (Table 4C, low drug loading, diluent DCP, anhyd., SRC (½″) tooling) of the same compound?
Its Friability is 1.30%.

And the Friability (Table 4C, low drug loading, diluent DCP, dihyd., Oval tooling)?
The Friability was “Broken”.

And the Friability (Table 4C, low drug loading, diluent DCP, dihyd., SRC (½″) tooling)?
The Friability was 0.94%.

And the Friability (Table 4D, high drug loading, diluent DCP, anhyd., modified capsule shape)?
Its Friability is 0.50%.
